Source: patent publication US20230174510A1, “N-acetylserotonin Derivatives as TrkB Activators and Uses Thereof” (Emory University, priority 2020, published 2023)
Entries after “also recorded” stand apart in the source; their conditions may differ. One block for each molecule: values may come before it.

Experiments:
[1] = molecular target: T1, TrkB (Homo sapiens, UniProt Q16620); test: TrkB phosphorylation, western blot, NIH 3T3 cells expressing human TrkB; type: cell-based; design: expressed in transfected cells; host or cells: NIH/3T3 (NIH-3T3-TrkB) cells; key to pTrkB/β-actin: “+”=increased phosphorylation; “−”=decreased phosphorylation; “nc”=no change; conditions: for pTrkB/β-actin: NIH 3T3 - TrkB cells, western blot; for concentration of best TrkB activation / TrkB activation, concentration dependence: NIH-3T3-TrkB cells, stimulated 30 minutes; for concentration of best TrkB activation: serum deprived overnight
Experimental: (§1) Different concentrations of 2-fluoro-N-(2-(5-hydroxy-1H-indol-3-yl)ethyl)nicotinamide (analogue 147) were tested in NIH-3T3-TrkB cells. Cells at 70-80% confluency were serum deprived overnight and then stimulated with different concentrations of analogue 147 for 30 minutes. Protein extract was collected and subjected for western blot analysis. […] “+”=increased phosphorylation; “−”=decreased phosphorylation; “nc”=no change.
(§2) To screen the analogs for biological activity, the phosphorylation state of TrkB and AKT, a downstream signaling mediator of TrkB activation, was examined in cultured NIH/3T3 cells expressing human TrkB and in primary cultures of rat cortical neurons (see FIG. 5).
Target sequence in this assay (Q16620 32-822): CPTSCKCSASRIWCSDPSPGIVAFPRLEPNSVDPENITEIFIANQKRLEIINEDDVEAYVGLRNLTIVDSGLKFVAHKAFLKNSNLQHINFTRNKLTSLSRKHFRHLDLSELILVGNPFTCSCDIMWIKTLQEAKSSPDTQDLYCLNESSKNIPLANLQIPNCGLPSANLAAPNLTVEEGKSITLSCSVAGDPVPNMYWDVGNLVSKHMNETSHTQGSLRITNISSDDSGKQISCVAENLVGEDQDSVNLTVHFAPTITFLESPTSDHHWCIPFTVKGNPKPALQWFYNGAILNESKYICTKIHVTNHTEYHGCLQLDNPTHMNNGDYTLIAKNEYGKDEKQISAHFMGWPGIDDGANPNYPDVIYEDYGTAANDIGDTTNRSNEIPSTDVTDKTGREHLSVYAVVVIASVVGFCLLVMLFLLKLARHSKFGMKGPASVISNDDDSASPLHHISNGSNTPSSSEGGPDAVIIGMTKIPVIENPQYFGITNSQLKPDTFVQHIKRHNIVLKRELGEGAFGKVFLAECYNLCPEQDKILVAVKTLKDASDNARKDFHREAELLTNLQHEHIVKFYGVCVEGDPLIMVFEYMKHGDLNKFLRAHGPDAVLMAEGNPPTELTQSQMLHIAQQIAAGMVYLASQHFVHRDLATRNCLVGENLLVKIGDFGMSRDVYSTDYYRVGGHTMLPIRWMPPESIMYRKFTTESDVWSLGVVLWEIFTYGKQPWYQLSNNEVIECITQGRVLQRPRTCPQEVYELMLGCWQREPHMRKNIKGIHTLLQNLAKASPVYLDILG

[2] = molecular target: T2, TrkB (Rattus norvegicus, UniProt Q63604); test: TrkB phosphorylation, western blot, primary rat cortical neuronal culture; type: cell-based; design: key: “+”=increased phosphorylation; “−”=decreased phosphorylation; “nc”=no change
T2 construct: in primary cultures of rat cortical neurons; endogenous in cells; host or cells: primary rat cortical neurons
T2 sequence (Q63604 32-821): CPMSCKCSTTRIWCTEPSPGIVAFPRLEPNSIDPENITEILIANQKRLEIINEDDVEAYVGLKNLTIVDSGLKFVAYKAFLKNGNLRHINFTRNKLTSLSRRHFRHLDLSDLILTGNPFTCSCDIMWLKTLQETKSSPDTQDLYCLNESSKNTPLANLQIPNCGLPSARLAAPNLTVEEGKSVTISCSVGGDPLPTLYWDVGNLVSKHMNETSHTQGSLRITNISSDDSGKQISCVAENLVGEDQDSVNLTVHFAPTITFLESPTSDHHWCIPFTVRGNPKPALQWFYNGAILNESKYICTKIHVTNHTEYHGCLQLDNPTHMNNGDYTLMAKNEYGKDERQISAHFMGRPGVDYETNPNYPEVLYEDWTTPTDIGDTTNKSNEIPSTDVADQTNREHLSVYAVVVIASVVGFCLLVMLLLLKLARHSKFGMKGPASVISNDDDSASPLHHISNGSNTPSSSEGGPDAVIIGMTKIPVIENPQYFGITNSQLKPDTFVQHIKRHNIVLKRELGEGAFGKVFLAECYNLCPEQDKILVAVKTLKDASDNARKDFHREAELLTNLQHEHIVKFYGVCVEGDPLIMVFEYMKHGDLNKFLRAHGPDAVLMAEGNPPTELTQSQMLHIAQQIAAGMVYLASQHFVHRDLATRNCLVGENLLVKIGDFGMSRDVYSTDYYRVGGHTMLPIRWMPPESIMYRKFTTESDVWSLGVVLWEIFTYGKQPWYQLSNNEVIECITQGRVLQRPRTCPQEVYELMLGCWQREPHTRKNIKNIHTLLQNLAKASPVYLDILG
Experimental: as §1, §2

[3] = system: AKT; test: AKT phosphorylation, western blot, primary rat cortical neuronal culture; type: cell-based; design: key: “+”=increased phosphorylation; “−”=decreased phosphorylation; “nc”=no change
Experimental: as §1, §2

[4] = system: AKT; test: AKT phosphorylation, western blot, NIH 3T3 cells expressing human TrkB; type: cell-based; design: key: “+”=increased phosphorylation; “−”=decreased phosphorylation; “nc”=no change; conditions: NIH 3T3 - TrkB cells
Experimental: as §1, §2

[5] = molecular target: T3, TrkB (Mus musculus, UniProt P15209); test: TrkB activation in retina and brain after systemic administration; type: in vivo
T3 construct: from tissue; host or cells: retina (ganglion cells) and brain
T3 sequence (P15209 32-821): as the sequence (Q63604 32-821) above, with M3T, T9S, T10A, I32V, K63R, G84S, T153M, I185L, T394S, N770S counted along it
From the text: This disclosure contemplates pharmaceutical treatments for trauma-induced vision loss that can be administered on the battlefield or in field hospitals during the critical period before irreversible neuronal degeneration and vision loss occur. A mouse blast injury model has been used to characterize the effects of blast injury to the eye and visual system. Blast injury results in (1) inflammatory responses (microglial activation and reactive gliosis) and activation of the innate and acquired immune system; (2) loss of visual function (contrast sensitivity and visual acuity); (3) thinning of the nerve fiber layer of the retina, and (4) axon loss in the optic nerve. An N-acetylserotonin derivative, N-[2-(5-hydroxy-1H-indol-3-yl)ethyl]-2-oxopiperidine-3-carboxamide (HIOC), effectively mitigates vision loss when administered within several hours after blast exposure (FIG. 1). Daily administration for one week reduces or prevents blast-induced loss of visual function for at least 4 months, mitigating the progressive vision loss that occurs over time in the absence of treatment. This therapeutic effect of HIOC is mediated by activation of TrkB, the cognate receptor for Brain-Derived Neurotrophic Factor (BDNF). Both N-acetylserotonin and HIOC activate TrkB and have neuroprotective properties. […]

[6] = system: kainic acid-induced neuronal cell death; conditions: TrkB-dependent; cited from earlier work
[7] = molecular target: T1, TrkB; conditions: cited from earlier work
Target sequence in this assay (Q16620 32-822, species assumed): as the sequence (Q16620 32-822) above

[8] = system: photoreceptor damage; conditions: cited from earlier work
[9] = system: blast-induced loss of visual function; test: Mouse blast injury (TBI) model, loss of visual function; type: in vivo
Experimental: Mice were exposed to a single 70 psi blast directed at the right side of the head. HIOC or vehicle was administered 15 minutes after exposure to blast, and daily for the next six days. A sham control group was included for comparison. Visual function was tested 1 week after blast.
This disclosure contemplates pharmaceutical treatments for trauma-induced vision loss that can be administered on the battlefield or in field hospitals during the critical period before irreversible neuronal degeneration and vision loss occur. A mouse blast injury model has been used to characterize the effects of blast injury to the eye and visual system. Blast injury results in (1) inflammatory responses (microglial activation and reactive gliosis) and activation of the innate and acquired immune system; (2) loss of visual function (contrast sensitivity and visual acuity); (3) thinning of the nerve fiber layer of the retina, and (4) axon loss in the optic nerve. An N-acetylserotonin derivative, N-[2-(5-hydroxy-1H-indol-3-yl)ethyl]-2-oxopiperidine-3-carboxamide (HIOC), effectively mitigates vision loss when administered within several hours after blast exposure (FIG. 1). Daily administration for one week reduces or prevents blast-induced loss of visual function for at least 4 months, mitigating the progressive vision loss that occurs over time in the absence of treatment. This therapeutic effect of HIOC is mediated by activation of TrkB, the cognate receptor for Brain-Derived Neurotrophic Factor (BDNF). Both N-acetylserotonin and HIOC activate TrkB and have neuroprotective properties. The pharmacokinetic characteristics of HIOC are desirable for an in vivo treatment because TrkB is activated for up to 16 hours following a single injection.
The ability of HIOC to mitigate the loss of visual function resulting from blast directed at the head was examined (FIG. 1). Mice were exposed to a single blast of ˜70 psi directed on the right side of the head. Contrast sensitivity was measured 1 week after blast.

[10] = system: brain damage from subarachnoid hemorrhage; conditions: cited from earlier work

pTrkB/β-actin [1]: +
pTrkB/β-actin [2]: +
Molecule: CC1(C(=O)NCCc2c[nH]c3ccc(O)cc23)CCCNC1=O (stereo not shown) [Analogue 170, N-(2-(5-hydroxy-1H-indol-3-yl)ethyl)-3-methyl-2-oxopiperidine-3-carboxamide]
pAkt/β-actin [3]: nc
pAkt/β-actin [4]: +

pTrkB/β-actin [1]: +
concentration of best TrkB activation [1]: 100 nM
pTrkB/β-actin [2]: +
Molecule: O=C(NCCc1c[nH]c2ccc(O)cc12)c1cncc(F)c1 [Analogue 127, 5-Fluoro-N-(2-(5-hydroxy-1H-indol-3-yl)ethyl)nicotinamide]
TrkB activation, concentration dependence [1]: higher activity at low nanomolar concentrations than at 1 μM
pAkt/β-actin [3]: +
pAkt/β-actin [4]: −

Molecule: O=C1NCCCC1C(=O)NCCc1c[nH]c2ccc(O)cc12 (stereo not shown) [HIOC, N-[2-(5-hydroxy-1H-indol-3-yl)ethyl]-2-oxopiperidine-3-carboxamide]
duration of TrkB activation ([5]; following a single injection): up to 16 hours
blood-retinal and blood-brain barrier penetration ([5]; systemic administration): crosses the blood-retinal and blood-brain barriers
pTrkB/β-actin [1]: +
kainic acid-induced neuronal cell death / apoptosis [6]: inhibits neuronal apoptosis; also recorded: reduces kainic acid-induced neuronal cell death
pTrkB/β-actin [2]: +
TrkB activation [7]: activate TrkB; also recorded: selectively activates TrkB
photoreceptor damage from toxic light exposure [8]: reduces photoreceptor damage
effects on blast-induced retinal and optic nerve damage ([9]; blast exposure): reduces vision loss, microglial activation in the retina, nerve fiber layer thinning, and the optic nerve axon loss
duration of protection from blast-induced loss of visual function ([9]; daily administration for one week): at least 4 months
TBI induced decrease in contrast sensitivity ([9]; mice, single ~70 psi blast, 80 mg/kg, measured 1 week after blast): completely prevented
brain damage from subarachnoid hemorrhage [10]: attenuates brain damage
pAkt/β-actin [3]: +
pAkt/β-actin [4]: +

pTrkB/β-actin [1]: +
concentration of best TrkB activation [1]: 10 nM
pTrkB/β-actin [2]: +
Molecule: O=C(NCCc1c[nH]c2ccc(O)cc12)c1cccnc1F [Analogue 147, 2-fluoro-N-(2-(5-hydroxy-1H-indol-3yl)ethyl)nicotinamide]
TrkB activation, concentration dependence [1]: higher activity at low nanomolar concentrations than at 1 μM
pAkt/β-actin [3]: +
pAkt/β-actin [4]: +

Molecule: CC(=O)NCCc1c[nH]c2ccc(O)cc12 [N-acetylserotonin]
TrkB activation [7]: activate TrkB

pTrkB/β-actin [1]: nc
pTrkB/β-actin [2]: +
Molecule: O=C(NCCc1c[nH]c2ccc(O)cc12)c1cccnc1 [Analogue 85, N-(2-(5-hydroxy-1H-indol-3-yl)ethyl)nicotinamide]
pAkt/β-actin [3]: +
pAkt/β-actin [4]: nc

pTrkB/β-actin [1]: −
pTrkB/β-actin [2]: +
Molecule: COc1ccc2[nH]cc(CCNC(=O)C3CCCNC3=O)c2c1 (stereo not shown) [Analogue 149, N-(2-(5-methoxy-1H-indol-3-yl)ethyl)-2-oxopiperidine-3-carboxamide]
pAkt/β-actin [3]: +
pAkt/β-actin [4]: +

pTrkB/β-actin [1]: −
pTrkB/β-actin [2]: +
Molecule: O=C(NCCc1c[nH]c2ccc(O)cc12)c1ccccn1 [Analogue 105, N-(2-(5-hydroxy-1H-indol-3yl)ethyl)picolinamide]
pAkt/β-actin [3]: +
pAkt/β-actin [4]: +

pTrkB/β-actin [2]: nc
Molecule: O=C(NCCc1c[nH]c2ccc(O)cc12)c1ccncc1F [Analogue 114, 3-fluoro-N-(2-(5-hydroxy-1H-indol-3-yl)ethyl)isonicotinamide]
pAkt/β-actin [3]: nc

pTrkB/β-actin [1]: +
pTrkB/β-actin [2]: +
Molecule: O=C(NCCc1c[nH]c2ccc(O)cc12)c1ccncc1 [Analogue 107, N-(2-(5-hydroxy-1H-indol-3-yl)ethyl)isonicotinamide]
pAkt/β-actin [3]: +
pAkt/β-actin [4]: +

pTrkB/β-actin [2]: +
Molecule: CN1CCCC(C(=O)NCCc2c[nH]c3ccc(O)cc23)C1=O (stereo not shown) [Analogue 151, N-(2-(5-hydroxy-1H-indol-3-yl)ethyl)-1-methyl-2-oxopiperidine-3-carboxamide]
pAkt/β-actin [3]: −

pTrkB/β-actin [1]: +
pTrkB/β-actin [2]: +
Molecule: O=C(NCCc1c[nH]c2ccc(O)cc12)c1ccccc1 [Analogue 83, N-(2-(5-hydroxy-1H-indol-32-yl)ethyl)benzamide]
pAkt/β-actin [3]: +
pAkt/β-actin [4]: +

pTrkB/β-actin [2]: +
Molecule: O=C(NCCc1c[nH]c2ccc(O)cc12)c1ccc(F)cn1 [Analogue 112, 5-fluoro-N-(2-(5-hydroxy-1H-indol-3yl)ethyl)picolinamide]
pAkt/β-actin [3]: −

pTrkB/β-actin [1]: +
pTrkB/β-actin [2]: +
Molecule: O=C1NCCCC1C(=O)NCCc1c[nH]c2ccccc12 (stereo not shown) [Analogue 145, N-(2-(1H-indol-3-yl)ethyl)-2-oxopiperidine-3-carboxamide]
pAkt/β-actin [3]: +
pAkt/β-actin [4]: +

pTrkB/β-actin [1]: +
pTrkB/β-actin [2]: +
B1: BDNF: Brain-Derived Neurotrophic Factor; TrkB is its cognate receptor (protein, UniProt P23560 19-247, looked up)
Neurotrophic factor BDNF …: APMKEANIRGQGGLAYPGVRTHGTLESVNGPKAGSRGLTSLADTFEHVIEELLDEDQKVRPNEENNKDADLYTSRVMLSSQVPLEPPLLFLLEEYKNYLDAANMSMRVRRHSDPARRGELSVCDSISEWVTAADKKTAVDMSGGTVTVLEKVPVSKGQLKQYFYETKCNPMGYTKEGCRGIDKRHWNSQCRTTQSYVRALTMDSKKRIGWRFIRIDTSCVCTLTIKRGR
pAkt/β-actin [3]: +
pAkt/β-actin [4]: +
